“Also recorded” adds a separate entry of the source.
Experiments:
PPAR-gamma receptor = biological target: T1, PPAR-gamma receptor (Rattus norvegicus, UniProt O88275); test: carrageenan-induced rat paw edema with PPAR-gamma antagonist GW9662, residence time of the paw on the hot plate; format: in vivo
T1 construct: from tissue; host or cells: live rat (in vivo, paw edema model)
T1 sequence (O88275 1-505): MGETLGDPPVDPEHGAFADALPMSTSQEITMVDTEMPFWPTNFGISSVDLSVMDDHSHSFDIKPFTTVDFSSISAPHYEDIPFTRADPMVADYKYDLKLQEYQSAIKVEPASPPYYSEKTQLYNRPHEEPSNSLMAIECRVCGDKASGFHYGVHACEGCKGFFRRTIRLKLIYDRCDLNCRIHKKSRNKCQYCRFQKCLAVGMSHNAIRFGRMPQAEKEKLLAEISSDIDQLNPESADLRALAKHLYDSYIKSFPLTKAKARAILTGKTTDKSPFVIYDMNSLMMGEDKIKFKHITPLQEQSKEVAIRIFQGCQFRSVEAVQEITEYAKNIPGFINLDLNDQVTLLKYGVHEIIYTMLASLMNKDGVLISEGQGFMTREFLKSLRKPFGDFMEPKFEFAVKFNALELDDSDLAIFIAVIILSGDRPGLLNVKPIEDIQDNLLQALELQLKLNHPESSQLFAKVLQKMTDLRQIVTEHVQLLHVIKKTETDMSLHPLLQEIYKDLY
Method: The experimental model of carrageenan-induced rat paw edema is as shown above. In this experiment, the effect was assessed by measuring the residence time of the animal's paw on the hot plate, thus obtaining percentage data with respect to the control treated with carrageenan alone.
The rats (10 animals per group) were divided into the following experimental groups: • CAR+physiological solution; • CAR+GW9662 (1 mg/kg)+Adelmidrol (10 mg/kg); GW9662 was administered i.p. 30 min before injecting CAR and Adelmidrol (i.p.) when injecting CAR; • CAR+Adelmidrol (10 mg/kg); Adelmidrol was administered i.p. when injecting CAR.

[1] = tested on: carrageenan-induced edema in PPAR-α-WT and KO mice; test: carrageenan-induced edema in PPAR-alpha knock-out mice; format: in vivo; conditions: Adelmidrol 10 mg/kg i.p.; for edema as a percentage with respect to the edema produced by carrageenan alone: PPAR-α-WT and KO mice
Method: In order to verify a possible involvement of PPAR-alpha receptor, the edema induced by carrageenan in the manners described above was carried out on PPAR-alpha knock-out mice (PPAR-α-WT and KO).
PPAR-α-WT and KO mice (10 animals per group) were divided into the following experimental groups: • CAR+physiological solution; • CAR+Adelmidrol (10 mg/kg); Adelmidrol was administered i.p. when injecting CAR.

[2] = tested on: MIA-induced articular cartilage erosion; test: monosodium iodoacetate (MIA)-induced articular lesion, cartilage erosion by stereomicroscope; format: in vivo; conditions: Adelmidrol 150 μg/25 μL i.a.
Method: FIG. 1A. Images obtained by a stereomicroscope on the state of erosion of the interposed cartilage in the right knee of each experimental group: control, MIA, Adelmidrol 150 μg/25 μL i.a. The analysis was performed 21 days after the induction of the disease.
FIG. 1B. Effect of the treatment with Adelmidrol 150 μg/25 μL i.a. on the erosive lesion of the interposed cartilage upon injection of MIA, compared to MIA and control groups treated with the solvent;
A microscopic analysis of the lesion related to the articular cartilage was performed by comparing the erosive lesion of the articular cartilage between the following groups: animals not treated with MIA, animals treated with MIA+solvent, and animals treated with MIA+solvent added with Adelmidrol. […] In the image corresponding to the animal damaged through MIA, an extensive cartilage erosion is apparent, which also allows to distinguish the subchondral bone, unlike the animal control whose joint is in excellent condition. […] Each image was given a score from 0 to 4 (0=normal; 4=maximum degree of injury severity) expressing the articular cartilage lesion in terms of increasing severity (Janusz M J et al. Ostearthritis and Cartilage 2001; 9:751-760), as described by Guingamp et al. (Guingamp C. et al. Arthritis & Rheumatism 1997; Vol 40 No 9:1670-1679).

[3] = tested on: inflammatory cells in BAL fluid; test: bleomycin-induced lung lesion, inflammatory cells in bronchoalveolar lavage (BAL) fluid; format: in vivo, CD1 male mice; conditions: BLM-treated mice, BAL seven days after induction
Method: CD1 male mice ((CD1(ICR) mice (25-35 g; Harlan Nossan, Italy) were accommodated in a controlled environment and fed with standard food and water.
Using a catheter (tracheotomy tube), the mice received a single intratracheal instillation of physiological solution (0.9%) or saline containing bleomycin sulfate (0.1 U/mouse) in a final volume of 100 μL, and the liquid was immediately followed by 300 μL of air in order to also ensure the distribution thereof in the distal airways.
Seven days after the induction of fibrosis, the mice were sacrificed and their trachea was immediately cannulated with an intravenous catheter made of polyethylene (Neo Delta Ven. 2, Delta Med, Viadana, Italy) equipped with a 1 mL 24-gauge syringe. The lungs were washed once with 0.5 mL of D-PBS (GIBCO, UK). In 95% of mice, the recovery volume exceeds 0.4 mL. The BAL fluid was centrifuged at 800 rpm, the surfactant was removed and the cell pellet was resuspended in PBS. The number of cells in the BAL fluid was obtained by counting on a hemocytometer in the presence of Trypan Blue. Cytospins were prepared from the cells resuspended in PBS. The slides were dried in dry air and then colored with Diff-Quick Set Stain (Diff-Quick, Baxter Scientific, Miami, FL). Using the optical microscopy, a total of 400 cells was examined from each sample in randomly chosen fields. […]

`O=C(CCCCCCCC(=O)NCCO)NCCO` [Adelmidrol, azelaic acid diethanolamide] was tested, and the “residence time of the paw on the hot plate, percentage with respect to the control treated with carrageenan alone” value (PPAR-gamma receptor; Adelmidrol 10 mg/kg ip alone, 0 min.) was 107.4 percentage, the “residence time of the paw on the hot plate, percentage with respect to the control treated with carrageenan alone” value (PPAR-gamma receptor; Adelmidrol 10 mg/kg ip alone, 30 min) was 98.5 percentage and the “residence time of the paw on the hot plate, percentage with respect to the control treated with carrageenan alone” value (PPAR-gamma receptor; Adelmidrol 10 mg/kg ip alone, 1 hr) was 123.2 percentage. The “residence time of the paw on the hot plate, percentage with respect to the control treated with carrageenan alone” value (PPAR-gamma receptor; Adelmidrol 10 mg/kg ip alone, 2 hr) was 134.2 percentage, the “residence time of the paw on the hot plate, percentage with respect to the control treated with carrageenan alone” value (PPAR-gamma receptor; Adelmidrol 10 mg/kg ip alone, 3 hr) was 146.8 percentage and the “residence time of the paw on the hot plate, percentage with respect to the control treated with carrageenan alone” value (PPAR-gamma receptor; Adelmidrol 10 mg/kg ip alone, 4 hr) was 197.7 percentage. The “residence time of the paw on the hot plate, percentage with respect to the control treated with carrageenan alone” value (PPAR-gamma receptor; Adelmidrol 10 mg/kg ip alone, 5 hr) was 175.0 percentage, the “residence time of the paw on the hot plate, percentage with respect to the control treated with carrageenan alone” value (PPAR-gamma receptor; GW9662 1 mg/kg i.p. 30 min before CAR + Adelmidrol 10 mg/kg i.p., 0 min.) was 105.2 percentage and the “residence time of the paw on the hot plate, percentage with respect to the control treated with carrageenan alone” value (PPAR-gamma receptor; GW9662 1 mg/kg i.p. 30 min before CAR + Adelmidrol 10 mg/kg i.p., 30 min) was 96.2 percentage. For the same compound, the “residence time of the paw on the hot plate, percentage with respect to the control treated with carrageenan alone” value (PPAR-gamma receptor; GW9662 1 mg/kg i.p. 30 min before CAR + Adelmidrol 10 mg/kg i.p., 1 hr) was 102.4 percentage, the “residence time of the paw on the hot plate, percentage with respect to the control treated with carrageenan alone” value (PPAR-gamma receptor; GW9662 1 mg/kg i.p. 30 min before CAR + Adelmidrol 10 mg/kg i.p., 2 hr) was 104.1 percentage and the “residence time of the paw on the hot plate, percentage with respect to the control treated with carrageenan alone” value (PPAR-gamma receptor; GW9662 1 mg/kg i.p. 30 min before CAR + Adelmidrol 10 mg/kg i.p., 3 hr) was 111.3 percentage. For the same compound, the “residence time of the paw on the hot plate, percentage with respect to the control treated with carrageenan alone” value (PPAR-gamma receptor; GW9662 1 mg/kg i.p. 30 min before CAR + Adelmidrol 10 mg/kg i.p., 4 hr) was 114.1 percentage, the “residence time of the paw on the hot plate, percentage with respect to the control treated with carrageenan alone” value (PPAR-gamma receptor; GW9662 1 mg/kg i.p. 30 min before CAR + Adelmidrol 10 mg/kg i.p., 5 hr) was 112.5 percentage and the “protective action on carrageenan-induced edema in the absence of the PPAR-alpha receptor” value ([1]; PPAR-alpha knock-out mice) was “did not alter the protective action of Adelmidrol; also recorded: shows activity on the carrageenan-induced edema in mice genetically lacking the PPAR-alpha receptor”. The “edema as a percentage with respect to the edema produced by carrageenan alone” value (from here on “edema as a percentage”) ([1]; 0 min.) was 102.4 percentage, the “edema as a percentage” value ([1]; 30 min) was 81.9 percentage and the “edema as a percentage” value ([1]; 1 hr) was 69.2 percentage. For the same compound, the “edema as a percentage” value ([1]; 2 hr) was 63.9 percentage, the “edema as a percentage” value ([1]; 3 hr) was 55.6 percentage and the “edema as a percentage” value ([1]; 4 hr) was 51.4 percentage. The “edema as a percentage” value ([1]; 5 hr) was 50.3 percentage, the “cartilage erosion of the tibial plateau, stereomicroscope image (FIG. 1A)” value ([2]; 21 days after induction with MIA) was “clear protection against cartilage erosion” and the “cartilage erosion, quantitative analysis of score 0 to 4 (FIG. 1B)” value ([2]; compared to MIA + solvent) was “noticeably slow down the cartilage erosion in a statistically significant manner”. For the same compound, the “number of macrophages, neutrophils and lymphocytes in BAL fluid (FIGS. 7 and 8)” value [3] was “reduces the number of macrophages, neutrophils and lymphocytes in a very significant manner”.

From patent US20240315990A1, “Adelmidrol For Use In Diseases Characterized By Insufficient Agonism Of PPAR-GAMMA Receptor” (Epitech Group S.P.A., priority 2016, published 2024)
